Read-outs that look alike come from different tables or passages of the source.
What was measured:
HeLa = assay: Proliferation assay (HeLa cell line); settings: Homo sapiens, 96 h, read-out: Biological Assay 2: Proliferation assay (HeLa cell line) median IC50;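 further: crystal violet staining of cell number, scaled between a plate stained before dosing (0%) and cells left untreated (100%), compounds tested at 0.001-10 µM, IC50 via 4-parameter fit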
[1] = biological target: T1, catalytic domain of human Bub1 (amino acids 704-1085) (Homo sapiens, UniProt O43683); assay: Bub1 kinase assay (TR-FRET); assay type: biochemical
T1 construct: catalytic domain of human Bub1 (amino acids 704-1085); His6 (N); made in house; host or cells: Hi5 insect cells
T1 sequence (O43683 704-1085): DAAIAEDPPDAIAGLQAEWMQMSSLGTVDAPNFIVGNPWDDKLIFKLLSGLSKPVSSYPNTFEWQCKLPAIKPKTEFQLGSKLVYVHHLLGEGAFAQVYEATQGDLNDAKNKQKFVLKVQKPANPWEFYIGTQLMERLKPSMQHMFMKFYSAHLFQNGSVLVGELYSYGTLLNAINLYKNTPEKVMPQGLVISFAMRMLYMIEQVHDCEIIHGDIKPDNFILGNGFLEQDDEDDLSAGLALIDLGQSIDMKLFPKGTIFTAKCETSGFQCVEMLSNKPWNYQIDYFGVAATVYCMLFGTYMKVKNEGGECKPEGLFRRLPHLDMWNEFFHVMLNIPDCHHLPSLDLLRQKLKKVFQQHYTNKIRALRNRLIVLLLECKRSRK
Procedure, shortened: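 TR-FRET read-out (Eu-anti-mouse IgG/anti-phosphoserine antibody to streptavidin-XL665 on biotinylated peptide) after EDTA stop and 1 h complex formation at 22° C. Kinase reaction ran 60 min at 22° C with 1:3.4 serial dilutions from 2 mM DMSO stocks. IC50 from 4-parameter logistic fit of normalized inhibition.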

Bub1 = Bub1 (Homo sapiens, UniProt O43683); assay: Formation-Assay: phosphorylation status of histone 2A by inhibition of kinase activity of Bub1; assay type: cell-based; settings: Biological Assay 4.1: H2A Formation IC50, co-treatment with Nocodazole 1 μg/ml, 16 h
Sequence of Bub1 (O43683 whole entry): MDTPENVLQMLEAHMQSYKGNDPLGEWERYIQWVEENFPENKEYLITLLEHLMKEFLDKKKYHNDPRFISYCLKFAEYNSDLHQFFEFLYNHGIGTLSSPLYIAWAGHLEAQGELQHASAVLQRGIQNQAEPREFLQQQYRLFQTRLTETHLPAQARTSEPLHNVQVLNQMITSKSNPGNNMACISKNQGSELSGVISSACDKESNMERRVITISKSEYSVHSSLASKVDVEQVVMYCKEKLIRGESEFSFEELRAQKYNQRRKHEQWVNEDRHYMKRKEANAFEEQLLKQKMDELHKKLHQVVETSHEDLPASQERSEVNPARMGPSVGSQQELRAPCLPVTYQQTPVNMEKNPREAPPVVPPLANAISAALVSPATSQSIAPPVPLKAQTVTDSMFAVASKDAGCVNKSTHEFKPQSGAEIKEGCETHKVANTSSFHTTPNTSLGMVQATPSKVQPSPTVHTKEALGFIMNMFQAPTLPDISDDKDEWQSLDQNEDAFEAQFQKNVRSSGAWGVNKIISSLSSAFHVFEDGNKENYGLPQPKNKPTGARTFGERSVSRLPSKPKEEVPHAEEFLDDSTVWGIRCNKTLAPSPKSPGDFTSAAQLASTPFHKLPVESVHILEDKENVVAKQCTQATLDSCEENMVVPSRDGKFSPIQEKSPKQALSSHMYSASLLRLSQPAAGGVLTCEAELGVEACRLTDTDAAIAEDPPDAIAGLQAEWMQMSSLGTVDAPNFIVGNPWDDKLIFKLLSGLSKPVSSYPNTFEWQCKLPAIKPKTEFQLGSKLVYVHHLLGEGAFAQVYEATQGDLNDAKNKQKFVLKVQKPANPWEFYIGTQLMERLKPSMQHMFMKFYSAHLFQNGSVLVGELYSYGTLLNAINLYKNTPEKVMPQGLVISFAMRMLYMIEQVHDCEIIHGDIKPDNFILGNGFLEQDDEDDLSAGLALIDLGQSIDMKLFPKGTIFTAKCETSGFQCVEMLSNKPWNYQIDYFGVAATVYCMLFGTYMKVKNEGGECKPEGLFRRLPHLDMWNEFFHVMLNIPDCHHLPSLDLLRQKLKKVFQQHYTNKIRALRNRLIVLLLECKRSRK
Procedure, shortened: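 Cells co-treated 16 h with Nocodazole (1 μg/ml) and compound (3 nM–10 μM), then fixed and immunostained for phospho-H2A, read by infrared imaging (800 nm) normalised to cell stain (700 nm). Nocodazole-only set as 100%, untreated cells as 0%.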

[2] = system: HeLa human cervical tumor cells; assay: Proliferation assay (HeLa+Paclitaxel); settings: read-out: Biological Assay 3: HeLa + Paclitaxel IC50, 3 nM paclitaxel, crystal violet;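 further: compounds at 0.001-10 µM added 4 h after paclitaxel, 92 h exposure, absorbance normalized to zero-point plate (0%) and untreated cells (100%), IC50 from 4-parameter fit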
[3] = Biological Assay 1: Bub1 kinase assay median IC50, 10 μM ATP
[4] = 10 μM ATP, read-out: Biological Assay 1: Bub1 kinase assay median IC50

Row | Structure (SMILES) | IC50 (HeLa) | IC50 [1, 3] | IC50 (Bub1) | IC50 [2] | IC50 [1, 4]
1 | CCOc1cc(F)c(Cn2nc(-c3ncc(CCCO)c(Nc4ccncc4)n3)c3ccccc32)c(F)c1 [Example 2-13-1, 3-{2-[1-(4-ethoxy-2,6-difluorobenzyl)-1H-indazol-3-yl]-4-(pyridin-4-ylamino)pyrimidin-5-yl}propan-1-ol] | 3.7 µM | 5.3 nM | 8.2 nM | 370 nM | 
2 | CCOc1cc(F)c(Cn2nc(-c3nc4c(c(Nc5ccncc5F)n3)CCC4)c3ccccc32)c(F)c1 [Example 2-14-1, 2-[1-(4-ethoxy-2,6-difluorobenzyl)-1H-indazol-3-yl]-N-(3-fluoropyridin-4-yl)-6,7-dihydro-5H-cyclopenta[d]pyrimidin-4-amine] | 10 µM |  | 2.8 nM | 680 nM | 9.6 nM
3 | CCOc1cc(F)c(Cn2nc(-c3nc4c(c(Nc5ccncc5C)n3)CCC4)c3ccccc32)c(F)c1 [Example 2-14-2, 2-[1-(4-ethoxy-2,6-difluorobenzyl)-1H-indazol-3-yl]-N-(3-methylpyridin-4-yl)-6,7-dihydro-5H-cyclopenta[d]pyrimidin-4-amine] | 1.1 µM |  | 1.6 nM | 120 nM | 8 nM
4 | CCOc1cc(F)c(Cn2nc(-c3nc4c(c(Nc5ccncc5OC)n3)CCC4)c3ccccc32)c(F)c1 [Example 2-14-4, 2-[1-(4-ethoxy-2,6-difluorobenzyl)-1H-indazol-3-yl]-N-(3-methoxypyridin-4-yl)-6,7-dihydro-5H-cyclopenta[d]pyrimidin-4-amine] | 0.94 µM |  | 13 nM | 120 nM | 2.9 nM
5 | CCOc1cc(F)c(Cn2nc(-c3nc4c(c(Nc5ccnnc5)n3)CCC4)c3ccccc32)c(F)c1 [Example 2-14-5, 2-[1-(4-ethoxy-2,6-difluorobenzyl)-1H-indazol-3-yl]-N-(pyridazin-4-yl)-6,7-dihydro-5H-cyclopenta[d]pyrimidin-4-amine] | 3.6 µM |  | 2.7 nM | 540 nM | 16 nM
6 | CCOc1cc(F)c(Cn2nc(-c3nc4c(c(Nc5ccncn5)n3)CCC4)c3ccccc32)c(F)c1 [Example 2-14-6, 2-[1-(4-ethoxy-2,6-difluorobenzyl)-1H-indazol-3-yl]-N-(pyrimidin-4-yl)-6,7-dihydro-5H-cyclopenta[d]pyrimidin-4-amine] | 3.6 µM |  | 2.7 nM | 270 nM | 37 nM
7 | CCOc1cc(F)c(Cn2nc(-c3nc4c(c(Nc5ccnc(C)c5)n3)CN(CC)CC4)c3ccccc32)c(F)c1 [Example 2-15-2, 2-[1-(4-ethoxy-2,6-difluorobenzyl)-1H-indazol-3-yl]-6-ethyl-N-(2-methylpyridin-4-yl)-5,6,7,8-tetrahydropyrido[4,3-d]pyrimidin-4-amine] | > 10 µM | 47 nM | 39 nM | 45 nM | 
8 | CCOc1cc(F)c(Cn2nc(-c3ncc(CCNCC(F)(F)F)c(Nc4ccncc4)n3)c3ccccc32)c(F)c1 [Example 2-16-1, 2-[1-(4-ethoxy-2,6-difluorobenzyl)-1H-indazol-3-yl]-N-(pyridin-4-yl)-5-{2-[(2,2,2-trifluoroethyl)amino]ethyl}pyrimidin-4-amine] | 3 µM | 18 nM | 18 nM | 200 nM | 
9 | CCOc1cc(F)c(Cn2nc(-c3ncc(C4CCNCC4)c(Nc4ccncc4)n3)c3ccccc32)c(F)c1 [Example 2-17-1, 2-[1-(4-ethoxy-2,6-difluorobenzyl)-1H-indazol-3-yl]-5-(piperidin-4-yl)-N-(pyridin-4-yl)pyrimidin-4-amine] | 1.1 µM | 6.1 nM | 12 nM | 170 nM | 
10 | CCOc1cc(F)c(Cn2nc(-c3ncc(C4CCNCC4)c(Nc4ccnc(NC(C)=O)c4)n3)c3ccccc32)c(F)c1 [Example 2-17-2, N-[4-({2-[1-(4-ethoxy-2,6-difluorobenzyl)-1H-indazol-3-yl]-5-(piperidin-4-yl)pyrimidin-4-yl}amino)pyridin-2-yl]acetamide] | 3.1 µM | 8.6 nM | 4.8 nM | 190 nM | 
